Measured values taken from ChEMBL document CHEMBL1909046, “DrugMatrix in vitro pharmacology data”.
Where a SMILES comes first, the peptide text is derived from it. Bridges are numbered along the chain shown (N, C = ends). [ ]: non-standard residue; d: D form. The star is where a group is joined. Ileψ(thiazoline)Cys = CC[C@H](C)[C@H](N)C1=N[C@H](C(=O)*)CS1; dOrn = NCCC[C@@H](N)C(=O)O

Legend:
[1] = molecular target: T1, Alpha-1D adrenergic receptor (Homo sapiens, UniProt P25100); assay type: cell membranes, HEK293, Membrane; conditions: hek293; note: in other assays of this panel Not Active means under 50% inhibition at 10 µM
T1 sequence (P25100 whole entry): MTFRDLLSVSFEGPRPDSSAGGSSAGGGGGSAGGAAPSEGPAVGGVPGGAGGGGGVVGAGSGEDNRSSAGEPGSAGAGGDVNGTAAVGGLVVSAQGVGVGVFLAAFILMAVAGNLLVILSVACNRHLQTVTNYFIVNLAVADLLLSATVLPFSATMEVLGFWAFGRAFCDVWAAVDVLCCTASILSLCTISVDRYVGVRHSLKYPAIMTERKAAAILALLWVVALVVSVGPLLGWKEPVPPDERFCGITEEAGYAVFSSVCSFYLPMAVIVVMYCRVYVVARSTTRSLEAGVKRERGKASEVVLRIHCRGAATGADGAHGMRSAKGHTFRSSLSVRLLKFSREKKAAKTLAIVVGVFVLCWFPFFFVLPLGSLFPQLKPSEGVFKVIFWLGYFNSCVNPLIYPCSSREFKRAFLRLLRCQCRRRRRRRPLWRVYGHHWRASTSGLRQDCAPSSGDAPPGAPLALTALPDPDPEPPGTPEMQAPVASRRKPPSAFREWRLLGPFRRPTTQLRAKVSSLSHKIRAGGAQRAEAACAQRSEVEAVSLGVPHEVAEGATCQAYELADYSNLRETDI

[2] = DRUGMATRIX: Sigma2 radioligand binding (ligand: [3H] Ifenprodil); assay type: cell membranes, Rattus norvegicus, Wistar, Brain, Membrane; conditions: Not Active = under 50% inhibition at 10 µM
Substance-K receptor = molecular target: T2, Substance-K receptor (Homo sapiens, UniProt P21452); assay type: cell membranes, CHO, Membrane; conditions: cho; note: in other assays of this panel Not Active means under 50% inhibition at 10 µM
T2 sequence (P21452 whole entry): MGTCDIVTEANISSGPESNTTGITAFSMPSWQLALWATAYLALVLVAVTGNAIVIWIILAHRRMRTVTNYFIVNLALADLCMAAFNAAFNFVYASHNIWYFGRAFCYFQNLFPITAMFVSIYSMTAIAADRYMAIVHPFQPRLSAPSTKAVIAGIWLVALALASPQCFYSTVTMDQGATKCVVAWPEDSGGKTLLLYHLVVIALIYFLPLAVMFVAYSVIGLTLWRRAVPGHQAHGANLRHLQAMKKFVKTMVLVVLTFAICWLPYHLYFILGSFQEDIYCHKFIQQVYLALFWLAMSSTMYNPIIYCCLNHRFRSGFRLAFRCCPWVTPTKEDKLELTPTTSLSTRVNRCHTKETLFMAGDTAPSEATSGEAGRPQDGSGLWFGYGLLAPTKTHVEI

Cannabinoid receptor 1 = Cannabinoid receptor 1 (Homo sapiens, UniProt P21554); assay type: cell membranes, Membrane; conditions: chem-1; note: in other assays of this panel Not Active means under 50% inhibition at 10 µM
Chain of Cannabinoid receptor 1 (P21554 whole entry): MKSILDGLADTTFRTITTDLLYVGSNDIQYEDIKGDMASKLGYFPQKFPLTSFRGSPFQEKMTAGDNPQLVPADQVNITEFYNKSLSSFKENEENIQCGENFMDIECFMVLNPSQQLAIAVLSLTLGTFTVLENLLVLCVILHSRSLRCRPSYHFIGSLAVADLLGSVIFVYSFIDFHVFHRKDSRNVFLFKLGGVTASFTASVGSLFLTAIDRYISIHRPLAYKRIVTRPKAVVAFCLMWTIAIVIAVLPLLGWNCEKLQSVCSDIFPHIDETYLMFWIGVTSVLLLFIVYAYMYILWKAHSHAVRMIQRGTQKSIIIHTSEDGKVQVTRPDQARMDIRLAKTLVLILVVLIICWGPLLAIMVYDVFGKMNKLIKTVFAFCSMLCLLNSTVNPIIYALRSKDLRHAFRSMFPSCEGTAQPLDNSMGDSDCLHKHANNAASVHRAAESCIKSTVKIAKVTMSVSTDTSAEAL

Carbonic anhydrase 2 = Carbonic anhydrase 2 (Homo sapiens, UniProt P00918); assay: DRUGMATRIX: Carbonic Anhydrase II enzyme inhibition (substrate: 4-Nitrophenyl acetate (4-NPA)); assay type: tissue-based, Erythrocyte; conditions: erythrocyte; Not Active = under 50% inhibition at 10 µM
[3] = DRUGMATRIX: GABAA, Muscimol, Central radioligand binding (ligand: [3H] Muscimol); assay type: cell membranes, Rattus norvegicus, Wistar, Brain, Membrane; conditions: Not Active = under 50% inhibition at 10 µM
Leukotriene C4 synthase = molecular target: T3, Leukotriene C4 synthase (Cavia porcellus, UniProt A6XA80); assay: biochemical; assay type: tissue-based, Lung;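 note: enzyme inhibition assay of leukotriene C4 synthase, using LTA4 as the substrate; in other assays of this panel Not Active means under 50% inhibition at 10 µM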
T3 sequence (A6XA80 whole entry): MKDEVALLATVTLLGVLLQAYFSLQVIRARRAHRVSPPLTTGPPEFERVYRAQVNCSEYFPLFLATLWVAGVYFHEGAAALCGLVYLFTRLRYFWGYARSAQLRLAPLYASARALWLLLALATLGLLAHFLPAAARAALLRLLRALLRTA

[4] = molecular target: Mitogen-activated protein kinase 14 (Homo sapiens, UniProt Q16539); parameters: species or system Escherichia coli
Chain of Mitogen-activated protein kinase 14 (Q16539 whole entry): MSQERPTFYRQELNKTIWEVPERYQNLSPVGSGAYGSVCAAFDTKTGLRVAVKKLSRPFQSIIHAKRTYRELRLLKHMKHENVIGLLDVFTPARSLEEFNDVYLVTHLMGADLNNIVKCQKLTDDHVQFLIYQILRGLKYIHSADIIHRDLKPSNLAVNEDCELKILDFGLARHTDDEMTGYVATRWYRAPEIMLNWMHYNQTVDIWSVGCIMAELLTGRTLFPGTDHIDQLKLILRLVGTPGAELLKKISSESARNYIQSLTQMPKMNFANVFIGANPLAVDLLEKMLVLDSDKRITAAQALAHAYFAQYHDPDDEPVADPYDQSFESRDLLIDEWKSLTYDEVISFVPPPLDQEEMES

[5] = molecular target: Tyrosine-protein kinase Fyn (Homo sapiens, UniProt P06241); assay: biochemical; assay type: cell-based, Insect cells; conditions: insect cells
Chain of Tyrosine-protein kinase Fyn (P06241 whole entry): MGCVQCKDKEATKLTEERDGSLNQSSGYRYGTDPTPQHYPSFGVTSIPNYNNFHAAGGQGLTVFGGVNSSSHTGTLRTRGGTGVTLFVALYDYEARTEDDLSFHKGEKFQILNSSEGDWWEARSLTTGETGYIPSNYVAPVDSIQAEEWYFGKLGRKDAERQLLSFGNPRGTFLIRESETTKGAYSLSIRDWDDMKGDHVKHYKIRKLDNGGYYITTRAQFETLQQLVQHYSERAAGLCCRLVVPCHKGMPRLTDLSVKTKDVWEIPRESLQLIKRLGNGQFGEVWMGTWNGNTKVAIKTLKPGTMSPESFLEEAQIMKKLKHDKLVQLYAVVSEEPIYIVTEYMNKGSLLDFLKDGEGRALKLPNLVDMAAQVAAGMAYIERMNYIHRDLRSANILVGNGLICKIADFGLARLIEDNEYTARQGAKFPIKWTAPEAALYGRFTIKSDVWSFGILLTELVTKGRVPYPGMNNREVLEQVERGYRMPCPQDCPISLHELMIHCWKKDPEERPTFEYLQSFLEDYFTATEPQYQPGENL

Acetylcholinesterase = Acetylcholinesterase (Homo sapiens, UniProt P22303); assay: DRUGMATRIX: Acetylcholinesterase enzyme inhibition (substrate: acetylthiocholine); assay type: cell-based, HEK293; conditions: hek293; Not Active = under 50% inhibition at 10 µM
Chain of Acetylcholinesterase (P22303 whole entry): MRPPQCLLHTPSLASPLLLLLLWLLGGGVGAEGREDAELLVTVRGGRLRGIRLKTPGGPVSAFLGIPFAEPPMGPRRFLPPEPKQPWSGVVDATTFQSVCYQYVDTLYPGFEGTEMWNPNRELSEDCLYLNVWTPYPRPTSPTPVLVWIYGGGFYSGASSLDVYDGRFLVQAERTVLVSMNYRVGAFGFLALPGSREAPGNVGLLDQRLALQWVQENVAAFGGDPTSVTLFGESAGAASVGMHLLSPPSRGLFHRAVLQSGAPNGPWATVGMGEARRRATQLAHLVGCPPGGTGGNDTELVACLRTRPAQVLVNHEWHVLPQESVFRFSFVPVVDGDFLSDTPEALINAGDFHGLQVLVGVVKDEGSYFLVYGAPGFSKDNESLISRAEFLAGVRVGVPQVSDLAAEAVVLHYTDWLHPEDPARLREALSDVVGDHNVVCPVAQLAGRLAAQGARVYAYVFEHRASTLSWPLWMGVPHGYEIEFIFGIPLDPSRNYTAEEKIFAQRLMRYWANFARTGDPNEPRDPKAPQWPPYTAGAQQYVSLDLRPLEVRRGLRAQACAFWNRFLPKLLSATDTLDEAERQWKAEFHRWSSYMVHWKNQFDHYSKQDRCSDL

Adenosine receptor A3 = molecular target: T4, Adenosine receptor A3 (Homo sapiens, UniProt P0DMS8); assay type: cell membranes, CHO-K1, Membrane; conditions: cho-k1
T4 sequence (P0DMS8 whole entry): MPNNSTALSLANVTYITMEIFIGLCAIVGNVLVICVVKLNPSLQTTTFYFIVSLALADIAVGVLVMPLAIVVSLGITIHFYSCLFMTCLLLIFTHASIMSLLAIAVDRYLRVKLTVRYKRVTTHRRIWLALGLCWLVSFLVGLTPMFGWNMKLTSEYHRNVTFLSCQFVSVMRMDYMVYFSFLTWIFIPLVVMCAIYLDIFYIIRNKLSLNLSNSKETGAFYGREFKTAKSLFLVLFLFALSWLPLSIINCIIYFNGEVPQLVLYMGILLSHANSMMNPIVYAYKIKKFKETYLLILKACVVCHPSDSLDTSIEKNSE

Cytochrome P450 2A6 = molecular target: T5, Cytochrome P450 2A6 (Homo sapiens, UniProt P11509); conditions: bti-tn-5b1-4; note: in other assays of this panel Not Active means under 50% inhibition at 10 µM
T5 sequence (P11509 whole entry): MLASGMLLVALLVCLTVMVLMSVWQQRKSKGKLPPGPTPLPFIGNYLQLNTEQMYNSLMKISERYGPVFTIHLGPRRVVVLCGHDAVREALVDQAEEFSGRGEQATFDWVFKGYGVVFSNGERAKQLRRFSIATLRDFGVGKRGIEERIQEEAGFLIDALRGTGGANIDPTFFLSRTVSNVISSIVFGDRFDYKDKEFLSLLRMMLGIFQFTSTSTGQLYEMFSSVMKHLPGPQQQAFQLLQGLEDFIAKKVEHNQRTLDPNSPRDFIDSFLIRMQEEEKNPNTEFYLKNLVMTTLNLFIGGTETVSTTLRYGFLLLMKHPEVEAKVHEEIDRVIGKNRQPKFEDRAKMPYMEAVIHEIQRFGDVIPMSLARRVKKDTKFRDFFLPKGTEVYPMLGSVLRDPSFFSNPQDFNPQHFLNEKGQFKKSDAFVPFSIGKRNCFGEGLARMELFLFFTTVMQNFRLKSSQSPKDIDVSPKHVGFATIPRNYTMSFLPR

Cytochrome P450 2C9 = Cytochrome P450 2C9 (Homo sapiens, UniProt P11712); conditions: bti-tn-5b1-4; note: in other assays of this panel Not Active means under 50% inhibition at 10 µM
Chain of Cytochrome P450 2C9 (P11712 whole entry): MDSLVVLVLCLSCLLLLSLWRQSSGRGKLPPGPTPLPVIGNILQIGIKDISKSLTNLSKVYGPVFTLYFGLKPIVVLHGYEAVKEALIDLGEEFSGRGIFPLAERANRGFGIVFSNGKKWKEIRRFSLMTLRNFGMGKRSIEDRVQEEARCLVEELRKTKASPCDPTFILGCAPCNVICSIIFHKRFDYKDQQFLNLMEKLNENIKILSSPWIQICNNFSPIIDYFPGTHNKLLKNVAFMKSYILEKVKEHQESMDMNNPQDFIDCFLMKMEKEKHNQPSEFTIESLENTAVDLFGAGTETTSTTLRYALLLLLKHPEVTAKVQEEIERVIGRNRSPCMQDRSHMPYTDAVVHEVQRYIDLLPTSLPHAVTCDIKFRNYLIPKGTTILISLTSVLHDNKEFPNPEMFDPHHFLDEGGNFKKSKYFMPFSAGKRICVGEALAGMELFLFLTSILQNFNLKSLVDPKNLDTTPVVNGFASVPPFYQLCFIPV

CC(C)NC[C@H](O)COc1cccc2[nH]ccc12
Not Active: IC50 [1] | IC50 [2] | Ki [2] | IC50 (Substance-K receptor) | IC50 (Cannabinoid receptor 1) | IC50 (Carbonic anhydrase 2) | IC50 [3] | Ki [3] | IC50 (Leukotriene C4 synthase) | IC50 [4] | IC50 [5] | IC50 (Acetylcholinesterase) | IC50 (Adenosine receptor A3)

CC[C@H](C)[C@H](N)C1=N[C@H](C(=O)N[C@@H](CC(C)C)C(=O)N[C@H](CCC(=O)O)C(=O)N[C@H](C(=O)N[C@H]2CCCCNC(=O)[C@H](CC(N)=O)NC(=O)[C@@H](CC(=O)O)NC(=O)[C@H](Cc3cnc[nH]3)NC(=O)[C@@H](Cc3ccccc3)NC(=O)[C@H]([C@@H](C)CC)NC(=O)[C@@H](CCCN)NC2=O)[C@@H](C)CC)CS1 [BACITRACIN] ({Ileψ(thiazoline)Cys}-L[dE]IK[dOrn]I[dF]H[dD]N; lactam 4-C)
Not Active: IC50 [1] | IC50 [2] | Ki [2] | IC50 (Substance-K receptor) | IC50 (Cannabinoid receptor 1) | IC50 (Carbonic anhydrase 2) | IC50 [3] | Ki [3] | IC50 (Leukotriene C4 synthase) | IC50 [4] | IC50 [5] | IC50 (Acetylcholinesterase) | IC50 (Adenosine receptor A3) | IC50 (Cytochrome P450 2A6) | Ki (Cytochrome P450 2A6)

CCCCOC(=O)c1ccc(N)cc1 [BUTAMBEN]
Not Active: IC50 [1] | IC50 [2] | Ki [2] | IC50 (Substance-K receptor) | IC50 (Cannabinoid receptor 1) | IC50 (Carbonic anhydrase 2) | IC50 [3] | Ki [3] | IC50 (Leukotriene C4 synthase) | IC50 [4] | IC50 [5] | IC50 (Acetylcholinesterase) | IC50 (Adenosine receptor A3) | IC50 (Cytochrome P450 2A6) | Ki (Cytochrome P450 2A6)

O=C1OCCN1/N=C/c1ccc([N+](=O)[O-])o1 [FURAZOLIDONE]
Not Active: IC50 [1] | IC50 [2] | Ki [2] | IC50 (Substance-K receptor) | IC50 (Cannabinoid receptor 1) | IC50 (Carbonic anhydrase 2) | IC50 [3] | Ki [3] | IC50 (Leukotriene C4 synthase) | IC50 [4] | IC50 [5] | IC50 (Acetylcholinesterase) | IC50 (Adenosine receptor A3)

NCC(=O)O [GLYCINE]
Not Active: IC50 [1] | IC50 [2] | Ki [2] | IC50 (Substance-K receptor) | IC50 (Cannabinoid receptor 1) | IC50 (Carbonic anhydrase 2) | IC50 [3] | Ki [3] | IC50 (Leukotriene C4 synthase) | IC50 [4] | IC50 [5] | IC50 (Acetylcholinesterase) | IC50 (Adenosine receptor A3)

C/C=C1\[C@H]2C=C(C)C[C@]1(N)c1ccc(=O)[nH]c1C2 [HUPERZINE A]
Not Active: IC50 [1] | IC50 [2] | Ki [2] | IC50 (Substance-K receptor) | IC50 (Cannabinoid receptor 1) | IC50 (Carbonic anhydrase 2) | IC50 [3] | Ki [3] | IC50 (Leukotriene C4 synthase) | IC50 [4] | IC50 [5] | IC50 (Adenosine receptor A3) | IC50 (Cytochrome P450 2A6) | Ki (Cytochrome P450 2A6) | IC50 (Cytochrome P450 2C9) | Ki (Cytochrome P450 2C9)

O=P1(NCCCl)OCCCN1CCCl (centres undefined) [IFOSFAMIDE]
Not Active: IC50 [1] | IC50 [2] | Ki [2] | IC50 (Substance-K receptor) | IC50 (Cannabinoid receptor 1) | IC50 (Carbonic anhydrase 2) | IC50 [3] | Ki [3] | IC50 (Leukotriene C4 synthase) | IC50 [4] | IC50 [5] | IC50 (Acetylcholinesterase) | IC50 (Adenosine receptor A3)

CNC(=O)Oc1ccc2c(c1)[C@]1(C)CCN(C)[C@@H]1N2C [PHYSOSTIGMINE]
Not Active: IC50 [1] | IC50 [2] | Ki [2] | IC50 (Substance-K receptor) | IC50 (Cannabinoid receptor 1) | IC50 (Carbonic anhydrase 2) | IC50 [3] | Ki [3] | IC50 (Leukotriene C4 synthase) | IC50 [4] | IC50 [5] | IC50 (Adenosine receptor A3) | IC50 (Cytochrome P450 2A6) | Ki (Cytochrome P450 2A6) | IC50 (Cytochrome P450 2C9) | Ki (Cytochrome P450 2C9)
